Results on five compounds are retold here after patent US10323019B2, “Pyrazolylaminobenzimidazole derivatives as JAK inhibitors” (Eli Lilly and Company, priority 2016, dated 2019).

Each structure is given as a SMILES string. Read-outs that look alike come from different tables or passages of the source.

The target in assay [1] is T1, JAK1 (Homo sapiens (Human), UniProt P23458). The experiment in a line: JAK LanthaScreen Kinase Assay (TR-FRET), JAK1 in vitro enzyme assay. It counts as biochemical. Conditions: 20.0 μM ATP. The protocol: (§1) The JAK LanthaScreen™ Kinase Assay (Invitrogen) is used to determine the ability of test compounds to inhibit JAK1, JAK2, and JAK3 kinase activity. These are TR-FRET assay formats that use long-lifetime terbium labeled antibody as the donor species and GFP-STAT1 as the acceptor species. Use the TR-FRET ratio to monitor JAK kinase activity where an increase in phosphorylation of the GFP-STAT1 results in an increase in the TR-FRET ratio. Perform the kinase reaction using a 12.5 μl reaction volume in shallow black 384-well Proxiplate®. Add reagents to obtain final reaction conditions of […], 1.76 mM Triton X-100, ATP (20.0 μM for JAK1 and JAK3 or 5 μM for JAK2) enzyme assays, 10.0 mM MgCl2, 1 mM EGTA and 0.01% Brij-35, […] GFP-STAT1, 14 nM JAK1 enzyme for JAK1, 1.0 nM for JAK2 or 2.5 nM for JAK3 enzyme assays, and 4% DMSO and serial dilutions of test compound (diluted 1:3 from 20,000 to 1 nM). Following ATP/GFP-STAT1 addition, centrifuge the assay plates for 1 minute at 1000 revolutions per minute (RPM). Allow the plates to incubate at RT for 60 minutes and then add 12.5 μl of a stopping buffer containing 20 mM EDTA, 2 nM Terbium-anti-phosphorylated Signal Transducers and Activators of Transcription [phosphorylation Tyrosine 701 amino acid] […] Use ACTIVITYBASE® 4.0 to fit the percent inhibition and ten-point compound concentration data to a four-parameter logistic equation.
T1 sequence (P23458 whole entry): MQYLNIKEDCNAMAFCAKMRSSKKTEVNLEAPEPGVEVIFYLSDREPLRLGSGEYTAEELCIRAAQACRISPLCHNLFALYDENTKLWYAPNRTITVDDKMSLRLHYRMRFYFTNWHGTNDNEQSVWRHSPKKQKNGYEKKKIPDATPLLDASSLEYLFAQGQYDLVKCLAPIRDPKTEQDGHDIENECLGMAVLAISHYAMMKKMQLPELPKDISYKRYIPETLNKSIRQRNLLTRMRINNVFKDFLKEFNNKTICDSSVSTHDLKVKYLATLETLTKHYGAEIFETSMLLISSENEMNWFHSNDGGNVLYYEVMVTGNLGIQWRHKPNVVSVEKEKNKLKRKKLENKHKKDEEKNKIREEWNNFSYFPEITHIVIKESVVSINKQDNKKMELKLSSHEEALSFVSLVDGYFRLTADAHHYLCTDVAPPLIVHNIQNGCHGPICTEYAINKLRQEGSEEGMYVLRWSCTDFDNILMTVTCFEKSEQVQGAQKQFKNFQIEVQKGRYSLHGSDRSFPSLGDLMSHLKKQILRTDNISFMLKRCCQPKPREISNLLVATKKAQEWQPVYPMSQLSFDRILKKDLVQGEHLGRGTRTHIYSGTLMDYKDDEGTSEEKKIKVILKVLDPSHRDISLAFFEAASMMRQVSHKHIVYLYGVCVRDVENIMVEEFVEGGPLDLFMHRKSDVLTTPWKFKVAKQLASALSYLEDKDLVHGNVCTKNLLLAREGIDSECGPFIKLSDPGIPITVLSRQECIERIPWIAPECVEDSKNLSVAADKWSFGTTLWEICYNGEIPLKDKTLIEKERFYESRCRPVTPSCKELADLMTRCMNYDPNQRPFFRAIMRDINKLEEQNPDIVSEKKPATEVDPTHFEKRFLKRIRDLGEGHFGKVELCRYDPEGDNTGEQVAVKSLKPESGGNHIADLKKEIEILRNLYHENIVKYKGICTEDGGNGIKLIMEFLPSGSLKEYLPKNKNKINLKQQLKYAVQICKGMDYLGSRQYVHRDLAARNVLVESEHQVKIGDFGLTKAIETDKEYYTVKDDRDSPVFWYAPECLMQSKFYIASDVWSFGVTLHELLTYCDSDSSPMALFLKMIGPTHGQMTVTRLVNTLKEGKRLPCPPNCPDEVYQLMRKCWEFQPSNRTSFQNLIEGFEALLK

For assay [2], the target named is JAK3 (Homo sapiens (Human), UniProt P52333). The experiment in a line: JAK LanthaScreen Kinase Assay (TR-FRET), JAK3 in vitro enzyme assay. It counts as biochemical. The conditions noted are these: 20.0 μM ATP. The procedure:
as §1

Assay [3] concerns the target T1, JAK1. In words: Human whole blood assay: pSTAT3 (JAK1) in lymphocytes, IL6 stimulated. The conditions noted are these: IL6, pSTAT3 in CD4+ lymphocytes. It counts as cell-based. An excerpt: (§2) Human Whole Blood Assays: Determination of pSTAT3 (JAK1) and pSTAT5 (JAK2) in Lymphocytes and Monocytes
(§3) Human whole blood (HWB) assays were developed and validated to determine the JAK1 and JAK2 selectivity of test compounds.
(§4) Dilute the test compounds, 10 points, (1:3) in DMSO 100% and a step down in PBS+0.1% BSA. Use Tofacitinib as a reference compound in each plate, as well as a maximum signal (stimulated wells) and a minimum signal (no stimulated wells) in order to normalize data. Obtain a pool of HWB from 4 different healthy donors. Plate the blood in a 96 well plate using a Tecan Evo 96w and incubate with test compounds for 1 h at RT. After this time of incubation, stimulate HWB with both IL6 (206-IL, R&D System) and GM-CSF (PHC2015, Life Technologies) for 15 more minutes. Add a viability dye (65-0865, eBiosicience) (1:1000) using a Tecan Evo 96w (5×mix).
(§5) The final concentrations in the assay are the following: 100 (μM for compounds, 50 μM for Tofacitinib, 0.1 μg/mL IL6, 0.038 μg/mL GM-CSF and 1% DMSO. Lyse and fix HWB using a Lyse/fix buffer (558049, Becton Dickinson) by adding 900 μL of lysis buffer using Tecan Evo 96w (mix 10× high speed). Incubate HWB in bath at 37° C. for 10 minutes. Centrifuge HWB at 500 G, 8 min and discard supernatant. Add cold MeOH using a Tecan Exo 96w in order to permeabilize cells. Incubate blood cells on ice during 30 min. After this, wash cells 2× using Staining buffer (554656, Becton Dickinson), spin at 3000 rpm, 2 min. discard supernatant, and add the following antibodies: Anti-Human CD4 PE, 1:100 (12-0048, eBioscience), Anti-Human CD33 eFluor® 450, 1:50 (48-0337, eBioscience), Phospho-STAT5 (Tyr694) (C71E5) Rabbit mAb, 1:100 (Alexa Fluor® 488 Conjugate) (3939, Cell Signaling) and Phospho-STAT3 (Tyr705) (D3A7) XP™ Rabbit mAb 1:200, (Alexa Fluor® 647 Conjugate) (4324, Cell Signaling). Incubate the antibodies for 1 h in dark at RT, then wash cells 2× and read on Cytometer Macsquant (Miltenyi Biotec). Gate the data on CD4+ (lymphocytes) and CD4Low CD33Hi (monocytes), to measure the fluorescence intensity from cells expressing pSTAT3 and pSTAT5, respectively. Analyze the data using FlowJo v 10 and then normalize the median of fluorescence versus maximum and minimum signal to determine the IC50s. Use Graph Pad Prism 5™ to represent the dose response curves.

The target of assay [4] is JAK1 (Rattus norvegicus, UniProt G3V9W2). The experiment in a line: Rat PK/PD assay: rat whole blood ex vivo JAK1 activity (pSTAT3). It counts as in vivo. The conditions noted are these: 30 mpk oral. The procedure:
(§6) Male Wistar rats, 265-285 grams (Charles River) were used for oral gavage dosing. Dose the animals (Oral gavage) at 1.82 mL/kg (0.5 mL per 275 grams). Formulate the compounds in 1% HEC vehicle containing 0.25% Tween 80 and 0.05% antifoam with 1.1 molar equivalent of methanesulfonic acid to form an in situ salt. Formulate compounds once per week, and store at 4° C. At various time points, obtain rat whole blood via tail vain bleeding in Multivette 600 μl EDTA blood collection tubes (cat#151671100PK100, Sarstedt Inc) and use for ex vivo JAK1 and JAK2 assay. Aliquot 100 ul of blood from each rat into a 96-well round bottom plate. Stimulate whole blood by recombinant IL-6 ([…], and recombinant mouse GM-CSF (cat#415-ML, lot#, R&D) for 12 min at rt. After cytokine stimulation, add whole blood into Lyse/fix (cat#558049, lot#, BD) in minitube rack; mix well 5×. Incubate 10 min at rt. Spin minitube rack at 600 g for 4 min. Aspirate with 12-channel manifold. Transfer contents of minitube rack to 96 well round-bottom plates. Spin down the cells at 3000 rpm for 1 min and discard the supernatant. Mix the cells in the well with 100 ul ice-cold MeOH and incubated on ice for 30 min. Add 150 ul PBS+2% FCS into each well and spin down at 3000 rpm, 2 min. Wash cells with 2× of 250 ul PBS+2% FCS. For cell surface and intracellular staining, mix all antibodies and add into each well and incubate 1 hr at rt in dark. The antibodies used for staining are as following: pSTAT3, Alexa Fluor 647 (cat#4324s, lot, Cell Signaling); pSTAT5, Alexa Fluor 488 (cat#3939s, lot#, Cell Signaling), anti-rat CD4, V450 (cat#561579, lot#. BD); anti-rat CD11b, Percp eFluor710 (cat#12-0110-82, lot#, eBioscience) After staining cells with Abs, wash the plates twice with PBS+2% FCS and finally re-suspend in the same 150 ul of solution. Assess cell viability by Viability Dye 780 (cat#65-0865-14, lot#, eBioscience). Perform the cytometry assay using FORTESSA.

Assay [5] relates to paw swelling in Lewis rats. The experiment in a line: Rat collagen-induced arthritis (CIA) model. It counts as in vivo. The protocol:
Rat Collagen-Induced Arthritis (CIA) Model
This protocol uses Lewis rats (weight 150-175 grams) from Charles River. On day 0, anesthetize rats with Isoflurane. On day 1, immunize intradermally with collagen emulsion in two sites on the lower lumbar region, above the base of the tail. Dose volume is a minimum of 0.4 mL per injection site. On day 8, anesthetize rats with Isoflurane and immunize intradermally with collagen emulsion in two sites on the lower lumbar region, above the base of the tail. Enroll rats into treatment groups on day 12, based on inflammation (redness and/or swelling) in their hind paws. Randomize animals for Treatment Phase based on ankle measurement values and body weight using block randomization allocation tool. Record ankle swelling on days 1, 8, and 11 and then three times per week following enrollment up to and including the day of necropsy. Dose compounds orally once a day starting on day 12 (after randomization) up to day 25. The compounds of Examples 6 and 7 were evaluated in the protocol essentially as described above.

The target of assay [6] is JAK2 (Rattus norvegicus (Rat), UniProt Q62689). The experiment in a line: Rat PK/PD assay: rat whole blood ex vivo JAK2 activity (pSTAT5). It counts as in vivo. Conditions: 30 mpk oral. The procedure:
as §6

Assay [7] addresses T2, JAK2 (Homo sapiens (Human), UniProt O60674). The experiment in a line: JAK LanthaScreen Kinase Assay (TR-FRET), JAK2 in vitro enzyme assay. It counts as biochemical. Conditions: 5 μM ATP. The protocol:
as §1

Assay [8] addresses T2, JAK2. In words: Human whole blood assay: pSTAT5 (JAK2) in monocytes, GM-CSF stimulated. It counts as cell-based. The conditions noted are these: pSTAT5 in CD4Low CD33Hi monocytes.
Source text: as §2, §3, §4, §5

The subject of assay [9] is paw swelling and bone mineral density loss in Lewis rats. In words: Rat adjuvant-induced arthritis (AIA) model. It counts as in vivo. Conditions: naïve rat as 100% inhibition. The procedure: Rat Adjuvant-Induced Arthritis (AIA) Model
The effects of compounds on polyarthritis inflammation and ankle joint bone erosion can be evaluated in a rat adjuvant-induced arthritis (AIA) model. Use Male Lewis rats with a mean body weight of 185 g for the study. Induce arthritis by intra-dermal injection located at the base of the tail with 100 μL of adjuvant suspended immunization emulsion oil. Randomize animals based on the mean paw thickness and body weight on day 10 into study groups with 8 rats in each group. Prepare compounds in 1% HEC/0.25% P80/0.05% AF in purified water and dose daily via oral gavage starting from day 11 post immunization for 14 days. Quantitate paw thickness with the caliper measurement on both ankles. Assess group differences using a one-way ANOVA followed by Dunnett's post-test for multiple comparisons against vehicle controls. The compound of Example 10 are evaluated in the protocol essentially as described above.

T2 sequence (O60674 whole entry): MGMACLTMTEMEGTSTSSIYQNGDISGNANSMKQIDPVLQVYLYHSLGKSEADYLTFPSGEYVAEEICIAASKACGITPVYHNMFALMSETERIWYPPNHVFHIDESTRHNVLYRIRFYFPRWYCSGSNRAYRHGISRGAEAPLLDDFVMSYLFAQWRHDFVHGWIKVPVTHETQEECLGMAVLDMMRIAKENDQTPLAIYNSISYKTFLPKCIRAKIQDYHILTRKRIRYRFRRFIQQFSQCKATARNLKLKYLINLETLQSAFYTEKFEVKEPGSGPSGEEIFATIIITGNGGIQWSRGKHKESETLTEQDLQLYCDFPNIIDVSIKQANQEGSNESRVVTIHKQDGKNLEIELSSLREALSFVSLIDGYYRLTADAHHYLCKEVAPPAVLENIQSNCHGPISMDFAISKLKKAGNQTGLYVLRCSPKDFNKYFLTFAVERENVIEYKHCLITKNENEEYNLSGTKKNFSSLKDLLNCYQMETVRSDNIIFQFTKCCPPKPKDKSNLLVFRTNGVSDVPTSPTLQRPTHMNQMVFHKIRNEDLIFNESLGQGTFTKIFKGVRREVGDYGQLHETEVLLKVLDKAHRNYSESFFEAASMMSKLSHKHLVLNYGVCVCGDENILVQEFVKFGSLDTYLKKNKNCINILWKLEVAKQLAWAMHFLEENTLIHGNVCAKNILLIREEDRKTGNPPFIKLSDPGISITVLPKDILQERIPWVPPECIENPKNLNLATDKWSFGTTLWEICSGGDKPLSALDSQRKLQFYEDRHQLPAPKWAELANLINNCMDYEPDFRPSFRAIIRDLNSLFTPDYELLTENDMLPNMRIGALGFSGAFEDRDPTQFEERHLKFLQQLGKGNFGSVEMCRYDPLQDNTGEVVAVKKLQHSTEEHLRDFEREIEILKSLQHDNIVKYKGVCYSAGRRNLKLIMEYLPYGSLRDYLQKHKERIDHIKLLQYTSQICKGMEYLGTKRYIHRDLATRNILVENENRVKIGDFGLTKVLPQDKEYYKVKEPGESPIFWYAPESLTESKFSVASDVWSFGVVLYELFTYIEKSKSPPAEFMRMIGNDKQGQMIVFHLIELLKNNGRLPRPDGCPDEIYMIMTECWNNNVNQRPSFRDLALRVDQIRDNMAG
JAK3, sequence (P52333 whole entry): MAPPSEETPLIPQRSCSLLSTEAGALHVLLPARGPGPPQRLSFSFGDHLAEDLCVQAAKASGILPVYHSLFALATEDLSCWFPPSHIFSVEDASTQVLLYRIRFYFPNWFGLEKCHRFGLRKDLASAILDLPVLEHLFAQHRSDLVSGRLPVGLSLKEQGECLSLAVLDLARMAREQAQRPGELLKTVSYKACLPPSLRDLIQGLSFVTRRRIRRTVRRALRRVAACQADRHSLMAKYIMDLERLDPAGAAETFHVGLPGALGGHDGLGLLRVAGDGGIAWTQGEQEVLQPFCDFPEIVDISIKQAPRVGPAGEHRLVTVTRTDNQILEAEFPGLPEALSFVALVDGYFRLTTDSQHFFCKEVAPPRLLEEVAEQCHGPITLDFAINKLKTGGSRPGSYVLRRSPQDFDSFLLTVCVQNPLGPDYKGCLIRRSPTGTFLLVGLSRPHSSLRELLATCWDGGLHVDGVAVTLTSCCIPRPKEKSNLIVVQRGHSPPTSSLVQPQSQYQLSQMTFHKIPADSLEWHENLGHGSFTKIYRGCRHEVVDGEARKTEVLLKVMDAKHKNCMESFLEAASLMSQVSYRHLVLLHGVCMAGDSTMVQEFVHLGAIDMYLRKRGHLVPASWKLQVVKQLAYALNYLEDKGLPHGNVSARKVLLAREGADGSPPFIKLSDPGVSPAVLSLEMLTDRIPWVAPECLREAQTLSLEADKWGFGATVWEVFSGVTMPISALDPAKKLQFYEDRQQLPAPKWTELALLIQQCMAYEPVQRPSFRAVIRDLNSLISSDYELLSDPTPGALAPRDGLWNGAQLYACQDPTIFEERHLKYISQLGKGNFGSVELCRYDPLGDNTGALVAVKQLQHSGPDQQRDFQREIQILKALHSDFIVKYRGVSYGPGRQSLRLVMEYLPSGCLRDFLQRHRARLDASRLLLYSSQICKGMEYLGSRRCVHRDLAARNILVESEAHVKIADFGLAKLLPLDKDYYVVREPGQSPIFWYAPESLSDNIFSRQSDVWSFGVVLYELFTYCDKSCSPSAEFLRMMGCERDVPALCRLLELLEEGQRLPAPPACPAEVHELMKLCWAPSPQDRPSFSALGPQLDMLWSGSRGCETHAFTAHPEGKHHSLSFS
JAK1 (Rattus norvegicus, UniProt G3V9W2), sequence (G3V9W2 1-1153): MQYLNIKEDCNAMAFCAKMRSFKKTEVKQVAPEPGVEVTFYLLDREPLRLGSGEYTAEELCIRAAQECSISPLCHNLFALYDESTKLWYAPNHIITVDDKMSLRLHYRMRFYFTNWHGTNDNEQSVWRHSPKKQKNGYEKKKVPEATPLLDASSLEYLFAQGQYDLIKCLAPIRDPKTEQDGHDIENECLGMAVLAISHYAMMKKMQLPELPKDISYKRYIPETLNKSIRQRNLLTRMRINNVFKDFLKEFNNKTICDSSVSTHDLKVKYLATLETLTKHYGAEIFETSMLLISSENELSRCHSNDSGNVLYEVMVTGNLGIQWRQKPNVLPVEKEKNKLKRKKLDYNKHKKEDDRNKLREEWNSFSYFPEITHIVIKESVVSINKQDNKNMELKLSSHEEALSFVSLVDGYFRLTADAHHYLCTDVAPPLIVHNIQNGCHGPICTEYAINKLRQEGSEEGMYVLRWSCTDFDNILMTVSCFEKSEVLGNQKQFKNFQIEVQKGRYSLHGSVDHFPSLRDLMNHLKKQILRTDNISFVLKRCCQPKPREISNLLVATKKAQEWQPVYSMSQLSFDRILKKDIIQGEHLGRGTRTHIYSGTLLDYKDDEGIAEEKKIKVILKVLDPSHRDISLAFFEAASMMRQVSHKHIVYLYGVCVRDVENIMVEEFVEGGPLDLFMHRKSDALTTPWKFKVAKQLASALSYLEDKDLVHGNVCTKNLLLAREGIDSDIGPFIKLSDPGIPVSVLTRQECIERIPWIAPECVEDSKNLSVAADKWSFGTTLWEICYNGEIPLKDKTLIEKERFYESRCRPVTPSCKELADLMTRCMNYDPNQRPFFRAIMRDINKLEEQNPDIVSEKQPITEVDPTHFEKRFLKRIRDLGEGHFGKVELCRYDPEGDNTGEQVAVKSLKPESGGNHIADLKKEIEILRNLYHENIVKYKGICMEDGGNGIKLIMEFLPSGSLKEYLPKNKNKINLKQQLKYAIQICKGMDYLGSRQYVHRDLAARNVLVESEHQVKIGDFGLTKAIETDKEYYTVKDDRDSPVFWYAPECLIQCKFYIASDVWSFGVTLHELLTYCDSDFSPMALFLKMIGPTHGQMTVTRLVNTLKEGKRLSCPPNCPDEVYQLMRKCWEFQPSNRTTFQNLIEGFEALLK

As for `CCn1nc(Nc2cc(OC3CCC(NC[C@@H](O)C(F)(F)F)CC3)cc3c2ncn3C)cc1C` (stereo in doubt) [Example 7], the results for the IC50 in assay [1], in assay [2] and in assay [3] were 5.43 ± 0.93 nM, 6160 ± 2020 nM and 4170 ± 1870 nM, respectively. Besides, the “JAK1 inhibition 2 hr post dosing” value in [4] (2 hr post dosing) is 70.7%. In addition, the “JAK1 inhibition 7 hr post dosing” value in assay [4] (7 hr post dosing) turned out to be 61.0%. The “Rat paw swelling % inhibition at 3 mpk” value in [5] (3 mpk oral once a day day 12 to 25, naïve rat as 100% inhibition) came to 0%. Besides, the “Rat paw swelling % inhibition at 10 mpk” value in [5] (10 mpk oral once a day day 12 to 25, naïve rat as 100% inhibition) amounted to 69%. Moreover, the “Rat paw swelling % inhibition at 30 mpk” value in assay [5] (30 mpk oral once a day day 12 to 25, naïve rat as 100% inhibition) is on record as 73%.
With `Cc1cc(Nc2cc(O[C@H]3CC[C@@H](NC[C@@H](O)C(F)(F)F)CC3)cc3c2ncn3C)nn1C[C@H](C)O` [Example 4, (2R)-1,1,1-Trifluoro-3-[(cis-4-{[4-({1-[(2S)-2-hydroxypropyl]-5-methyl-1H-pyrazol-3-yl}amino)-1-methyl-1H-benzimidazol-6-yl]oxy}cyclohexyl)amino]propan-2-ol], the inhibition at 30 mg/kg is 72% in assay [4] (2 hr post dosing, read-out: JAK1 inhibition 2 hr post dosing); 22.3% in assay [4] (7 hr post dosing, read-out: JAK1 inhibition 7 hr post dosing); 22.9% in assay [6] (2 hr post dosing, read-out: JAK2 inhibition 2 hr post dosing); 20.1% in [6] (7 hr post dosing, read-out: JAK2 inhibition 7 hr post dosing).
As to `Cn1cnc2c(Nc3cc[nH]n3)cc(O[C@H]3CC[C@@](C)(NC[C@@H](O)C(F)(F)F)CC3)cc21` [Example 8, (2R)-1,1,1-Trifluoro-3-[(cis-1-methyl-4-{[1-methyl-4-(1H-pyrazol-3-ylamino)-1H-benzimidazol-6-yl]oxy}cyclohexyl)amino]propan-2-ol], the IC50 is 1.91 ± 0.75 nM in assay [1]; 239 ± 150 nM in [7]; 1170 ± 470 nM in assay [2]; 3130 ± 1100 nM in assay [3]; 9630 ± 2520 nM in assay [8].
The like results for `Cc1cc(Nc2cc(O[C@H]3CC[C@@H](NC[C@@H](O)C(F)F)CC3)cc3c2ncn3C)nn1C` [Example 9, (2R)-3-{[cis-4-({4-[(1,5-Dimethyl-1H-pyrazol-3-yl)amino]-1-methyl-1H-benzimidazol-6-yl}oxy)cyclohexyl]amino}-1,1-difluoropropan-2-ol] were, in that order, 5.35 ± 0.23 nM, 767 ± 39 nM, 2140 ± 720 nM, 4530 ± 2090 nM and 16900 ± 4500 nM.
As to `Cn1cnc2c(Nc3ccn(-c4ccccn4)n3)cc(O[C@H]3CC[C@@H](NC[C@@H](O)C(F)(F)F)CC3)cc21` [Example 10, (2R)-1,1,1-Trifluoro-3-({cis-4-[(1-methyl-4-{[1-(pyridin-2-yl)-1H-pyrazol-3-yl]amino}-1H-benzimidazol-6-yl)oxy]cyclohexyl}amino)propan-2-ol], the concentration for half-maximal inhibition (IC50) in assay [1] worked out at 1.49 ± 0.49 nM; in assay [7], 220 ± 120 nM; in assay [2] it was 660 ± 180 nM; in [3] it was 1290 ± 640 nM; in assay [8] it was 6860 ± 2130 nM. For the same compound, the results for the “% inhibition of BMD loss in paw” value in assay [9] (3 mpk oral daily for 14 days), in [9] (10 mpk oral daily for 14 days) and in assay [9] (30 mpk oral daily for 14 days) were 39%, 81% and 84%, respectively. Moreover, the “% inhibition of paw swelling” value is listed as 26% in assay [9] (3 mpk oral daily for 14 days), 63% in [9] (10 mpk oral daily for 14 days) and 73% in assay [9] (30 mpk oral daily for 14 days).
